This note sets out measurements from PubChem BioAssay (NCI).

Where “and” joins values, the source holds several entries; their conditions need not be identical. Equal entries are not always repeated.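 How tested: cells in 96-well plates exposed to compound for 48 hours at five concentrations. Here, GI50 denotes the concentration required for 50% inhibition of growth. TGI marks complete inhibition of growth.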

Assay in all cases: growth of human tumour cells (NCI), 48 h
The test system of test [1] is COLO 205 colon.
Test [2] has as its system EKVX NSCLC.
Test [3] deals with RPMI-8226 leukemia.
Test [4] deals with OVCAR-8 ovarian.
The subject of test [5] is HOP-62 NSCLC.
Test [6] relates to OVCAR-4 ovarian.
The test system of test [7] is HOP-92 NSCLC.
Test [8] has as its system SN12C renal.
Test [9] relates to SF-295 CNS.
Test [10] concerns MOLT-4 leukemia.

For the compound `NC(N)=NC(N)=Nc1ccc(S(N)(=O)=O)cc1`, the TGI in test [1], in test [2], in test [3], in test [4], in test [5] and in test [6] was more than 100 µM each time. In addition, the TGI in [7], in test [8], in test [9] and in [10] was more than 100 µM each time.

As to `COc1cc2c(cc1OC)-c1ncc3cc(OC)c(OC)cc3c1C2`, the GI50 was more than 50 µM in [1]; more than 50 µM in [2]; 14 µM in test [3]; more than 50 µM in [4]; more than 50 µM in test [6]; more than 50 µM in [7]. The values for the GI50 in [8], in [9] and in test [10] were more than 50 µM, more than 50 µM and 25.4 µM, respectively. The TGI in test [1], in test [2], in test [3], in [4], in test [6] and in test [7] was more than 50 µM each time. The TGI in [8], in test [9] and in [10] was more than 50 µM throughout.

As for `CC(C)=CCC/C(C)=C/CC/C(C)=C/C1CCC(=O)C1(C)C` (stereo not drawn), the TGI came out at 30.8 µM in test [1]; 42.4 µM in test [2]; 42.4 µM in test [3]; 38.7 µM in [4]; 69.6 µM in [5]; 66 µM in test [6]. Besides, the TGI in test [7] is 51.7 µM; in test [8], 30.9 µM; in [9], 33 µM; in test [10], 41 µM.

With `Cc1nc(-n2nc(-c3ccccc3)cc2-c2ccccc2)sc1C(=O)/C=C/c1ccc(Cl)cc1`, the TGI in test [1] is 30.1 µM; in [2], more than 100 µM; in [3] it was 26.7 µM; in [4], more than 100 µM; in test [5], 34.4 µM; in [7] it was 43 µM. In addition, the TGI in test [8] is more than 100 µM; in test [9] it was 30.5 µM; in test [10], 41 µM.

Take `[N-]=[N+]=NC1C2CC3CC(C2)CC1C3` (stereo not drawn): the TGI in test [1], in test [2], in [3], in test [4], in test [5] and in test [6] was more than 100 µM each time. The TGI in test [7], in test [8], in [9] and in test [10] was more than 100 µM throughout.

On to `N.N.NCCCCCN.O=C([O-])CC(=O)[O-].O=C([O-])CC(=O)[O-].[Pt+4].[Pt+4]`, for which the GI50 in test [1] was more than 100 µM; in test [2] it was more than 100 µM; in test [3], more than 100 µM; in test [4] it was more than 100 µM; in test [5], 43 µM; in test [7] it was more than 100 µM. Also, the GI50 in [8] was 45.6 µM; in [9], 73.1 µM; in test [10], 65.5 µM. Also, the TGI in [1], in [2], in [3], in [4], in test [5] and in [7] was more than 100 µM in each case. In addition, the TGI in test [8], in [9] and in [10] was more than 100 µM each time.

`COC(=O)C1=C(O)c2cc3c(cc2[C@H](c2cc(OC)c(OC)c(OC)c2)C1)OCO3`: the TGI in test [1] was 34.7 µM; in test [3], more than 100 µM; in [4] it was more than 100 µM; in [5], more than 100 µM; in [6] it was more than 100 µM; in test [7] it was more than 100 µM. The TGI in [8] is more than 100 µM; in test [9], more than 100 µM; in [10], 89.6 µM.

Consider `CN(C)C1C(=O)C(C(N)=O)=C(O)C2(O)C(=O)C3=C(O)c4c(O)cccc4C(C)(O)C3CC12` (stereo not drawn), for which the GI50 in test [1] was 25.7 µM and > 100 µM; in test [4], 15.4 µM and > 100 µM; in test [5], 37.5 µM and > 100 µM; in test [6] it was 31 µM and > 100 µM; in test [8] it was 18.4 µM and > 100 µM; in [10] it was 23.5 µM and > 100 µM. The TGI is 72.2 µM and > 100 µM in test [1]; more than 100 µM in test [2]; more than 100 µM in [3]; 34.9 µM and > 100 µM in [4]; more than 100 µM in [5]; 75 µM and > 100 µM in test [6]. Moreover, the TGI in test [7] was more than 100 µM; in test [8], 32.5 µM and > 100 µM; in test [10], 46.5 µM and > 100 µM.

Turning to `COc1cc(=O)oc(/C=C/C=C/C=C/C(C)=C\C2(C)OC(C)C(C)(O)C2O)c1C` (stereo not drawn), the TGI in [1], in test [2], in test [3], in test [4], in test [5] and in test [7] was more than 100 µM in each case. For the same compound, the TGI in test [8], in [9] and in test [10] was more than 100 µM throughout.

Turning to `CC1=CC2=C(C#N)C(=O)OC2(C)C(c2ccccc2)C1` (stereo not drawn), the TGI in test [2], in test [3], in test [4], in [5], in test [6] and in test [7] was more than 100 µM each time. The TGI in [8], in [9] and in test [10] was more than 100 µM throughout.

As to `CC(=Nc1ccccc1)C1=C(O)C(Cc2ccc(F)cc2)NC1=O` (stereo not drawn), the GI50 is 0.421 µM in test [1]; 0.859 µM in [3]; 2.73 µM in test [4]; 0.959 µM in test [5]; 14.4 µM in test [6]; 0.327 µM in [7]. In addition, the GI50 in [8] is 5.76 µM; in test [10], 3.18 µM. Also, the TGI in test [1] was 3.21 µM; in test [3], more than 100 µM; in [4] it was more than 100 µM; in test [5] it was more than 100 µM; in test [6] it was more than 100 µM; in test [7], more than 100 µM. The TGI in test [8] and in test [10] was more than 100 µM in each case.
